This assay deals with T1, Recombinant human PAD4 (2-663) (Homo sapiens, UniProt Q9UM07).
T1 construct: Recombinant human PAD4 (2-663) was expressed in E. coli; made in house; host or cells: E. coli
T1 sequence (Q9UM07 2-663): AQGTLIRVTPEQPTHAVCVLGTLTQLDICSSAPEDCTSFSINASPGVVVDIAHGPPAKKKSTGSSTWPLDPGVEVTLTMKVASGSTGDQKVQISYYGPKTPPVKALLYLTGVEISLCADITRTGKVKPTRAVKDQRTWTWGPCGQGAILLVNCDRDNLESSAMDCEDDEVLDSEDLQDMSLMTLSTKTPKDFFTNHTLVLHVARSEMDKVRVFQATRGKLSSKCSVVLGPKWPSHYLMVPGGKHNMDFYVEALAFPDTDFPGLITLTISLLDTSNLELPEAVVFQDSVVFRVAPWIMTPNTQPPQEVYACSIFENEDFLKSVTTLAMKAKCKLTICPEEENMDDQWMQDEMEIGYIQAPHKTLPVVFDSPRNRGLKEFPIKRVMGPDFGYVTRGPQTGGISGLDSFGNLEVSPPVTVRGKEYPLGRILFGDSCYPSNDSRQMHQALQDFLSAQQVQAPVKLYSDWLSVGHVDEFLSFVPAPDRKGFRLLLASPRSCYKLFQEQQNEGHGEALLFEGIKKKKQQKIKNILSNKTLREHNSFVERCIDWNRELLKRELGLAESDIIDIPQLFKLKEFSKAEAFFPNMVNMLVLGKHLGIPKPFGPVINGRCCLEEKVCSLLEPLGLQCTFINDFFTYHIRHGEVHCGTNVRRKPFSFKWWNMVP
Nature of the assay: PAD4 Inhibition Assay. The class given is biochemical. As to conditions: 60 mins pre-incubation at RT; substrate BAEE with CaCl2; fluorescent signal (λex 405/λem 460). The protocol: Protein: Recombinant human PAD4 (2-663) was expressed in E. coli as an N-terminal Strep-tag and C-terminal 6-his tag fusion protein. Protein was purified using Strep-tactin resin followed by size exclusion chromatography. Tags were not removed during purification. Activity of the protein was determined using ammonia quantification assay.
PAD4 enzyme (10 μL) was diluted to concentration of 75 nM in assay buffer A (100 mM HEPES, pH 8, 50 mM NaCl, 2 mM DTT, 0.6 mg/mL BSA and 0.5% DMSO) and added to wells containing 10 μL of various concentrations of test compound, or DMSO vehicle in buffer A with 1.5% final DMSO concentration in a Corning high volume 384 well black plate. Following 60 mins pre-incubation at RT with gentle shaking, the reaction was initiated by the addition of 10 μL of substrate buffer containing 3 mM N-α-benzoyl-L-arginine ethyl ester (BAEE) and 600 μM CaCl2) in assay buffer A. The reaction was stopped after 60 mins with the addition of 15 μL stop/detection buffer containing 7.5 mM phthalaldehyde, 50 mM EDTA and 7.5 mM DTT in assay buffer A. Quenched reactions were incubated at RT for 45 mins before measuring fluorescent signal (λex 405/λem 460) on an Envision plate reader (Perkin Elmer Life Sciences, Waltham, Mass., USA).
For `O=C(N[C@@H]1CNC[C@H]1O)c1cc2cc(Cl)c(F)c(F)c2[nH]1` [Example 15, 5-Chloro-6,7-difluoro-N-((3R,4R)-4-hydroxypyrrolidin-3-yl)-1H-indole-2-carboxamide], the half-maximal inhibitory concentration (IC50) is 1 to 10 µM.
Regarding `O=C(c1cc2cc(Cl)c(F)c(F)c2[nH]1)N1CC2(CNC2)C1` [Example 60, (5-chloro-6,7-difluoro-1H-indol-2-yl)(2,6-diazaspiro[3.3]heptan-2-yl)methanone], the half-inhibitory concentration (IC50) was in the range of 10 to 100 µM.
The same measure for `O=C(NC1CNC1)c1cc2cc(Cl)c(F)c(F)c2[nH]1` [Example 23, N-(Azetidin-3-yl)-5-chloro-6,7-difluoro-1H-indole-2-carboxamide]: at most 1 µM; for `O=C(N[C@H]1CNC[C@@H]1O)c1cc2cc(Cl)c(F)c(F)c2[nH]1` [Example 18, 5-Chloro-6,7-difluoro-N-((3S,4S)-4-hydroxypyrrolidin-3-yl)-1H-indole-2-carboxamide]: 10 to 100 µM.
Then `CC1(NC(=O)c2cc3cc(Cl)c(F)c(F)c3[nH]2)CNC1` [Example 53, 5-chloro-6,7-difluoro-N-(3-methylazetidin-3-yl)-1H-indole-2-carboxamide], with 10 to 100 µM; and `CC[C@@H](CN)NC(=O)c1cc2cc(Cl)c(F)c(F)c2[nH]1` [Example 10, (S)-N-(1-Aminobutan-2-yl)-5-chloro-6,7-difluoro-1H-indole-2-carboxamide], with 1 to 10 µM.
In the case of `NC1CN(C(=O)c2cc3cc(Cl)c(F)c(F)c3[nH]2)C1` [Example 24, (3-Aminoazetidin-1-yl)(5-chloro-6,7-difluoro-1H-indol-2-yl)methanone], the IC50 was in the range of 1 to 10 µM.
As to `C[C@H](CN)NC(=O)c1cc2cc(Cl)c(F)c(F)c2[nH]1` [Example 21, (R)-N-(1-Aminopropan-2-yl)-5-chloro-6,7-difluoro-1H-indole-2-carboxamide], the IC50 lay within 10 to 100 µM.
Then `NCC1(NC(=O)c2cc3cc(Cl)c(F)c(F)c3[nH]2)COC1` [Example 12, N-(3-(Aminomethyl)oxetan-3-yl)-5-chloro-6,7-difluoro-1H-indole-2-carboxamide], with 10 to 100 µM; and `N[C@@H]1CCN(C(=O)c2cc3cc(Br)ccc3[nH]2)C1` [Example 48, (R)-(3-Aminopyrrolidin-1-yl)(5-bromo-1H-indol-2-yl)methanone], with 1 to 10 µM; and `CN(C(=O)c1cc2cc(Cl)c(F)c(F)c2[nH]1)[C@H]1CCNC1` [Example 51, (S)-5-chloro-6,7-difluoro-N-methyl-N-(pyrrolidin-3-yl)-1H-indole-2-carboxamide], with 10 to 100 µM.
Regarding `N[C@H]1CN(C(=O)c2cc3cc(Cl)c(F)c(F)c3[nH]2)CC[C@@H]1F` [Example 42, ((3S,4S)-3-Amino-4-fluoropiperidin-1-yl)(5-chloro-6,7-difluoro-1H-indol-2-yl)methanone], the IC50 fell in the range of 10 to 100 µM.
Take `N[C@@H]1CCCN(C(=O)c2cc3cc(Cl)c(F)c(F)c3[nH]2)C1` [Example 38, (R)-(3-Aminopiperidin-1-yl)(5-chloro-6,7-difluoro-1H-indol-2-yl)methanone]: the concentration for half-maximal inhibition (IC50) lay within 10 to 100 µM.
The same measure for `C[C@H]1CCNC[C@@H]1NC(=O)c1cc2cc(Cl)c(F)c(F)c2[nH]1` [Example 41, 5-Chloro-6,7-difluoro-N-((3R,4S)-4-methylpiperidin-3-yl)-1H-indole-2-carboxamide]: 10 to 100 µM; for `N[C@H]1CN(C(=O)c2cc3cc(Cl)c(F)c(F)c3[nH]2)C[C@@H]1F` [Example 37, ((3S,4S)-3-Amino-4-fluoropyrrolidin-1-yl)(5-chloro-6,7-difluoro-1H-indol-2-yl)methanone]: 1 to 10 µM; for `O=C(c1cc2cc(Cl)c(F)c(F)c2[nH]1)N1C[C@H]2CNC[C@H]21` [Example 56, (1R,5S)-3,6-diazabicyclo[3.2.0]heptan-6-yl(5-chloro-6,7-difluoro-1H-indol-2-yl)methanone]: 1 to 10 µM.
Then `N[C@@H]1CCN(C(=O)c2cc3cc(Br)c(F)c(F)c3[nH]2)C1` [Example 5, (R)-(3-Aminopyrrolidin-1-yl)(5-bromo-6,7-difluoro-1H-indol-2-yl)methanone], with at most 1 µM; and `C[C@@H](CN)N(C)C(=O)c1cc2cc(Cl)c(F)c(F)c2[nH]1` [Example 64, (S)-N-(1-aminopropan-2-yl)-5-chloro-6,7-difluoro-N-methyl-1H-indole-2-carboxamide], with 1 to 10 µM; and `N[C@H]1CN(C(=O)c2cc3cc(Br)c(F)c(F)c3[nH]2)C[C@H]1O` [Example 67, ((3S,4R)-3-amino-4-hydroxypyrrolidin-1-yl)(5-bromo-6,7-difluoro-1H-indol-2-yl)methanone], with 1 to 10 µM.
The same measure for `O=C(NC[C@@H]1CCNC1)c1cc2cc(Cl)c(F)c(F)c2[nH]1` [Example 63, (R)-5-chloro-6,7-difluoro-N-(pyrrolidin-3-ylmethyl)-1H-indole-2-carboxamide]: 10 to 100 µM.
For `N[C@@H]1CCN(C(=O)c2cc3cc(Cl)cc(Cl)c3[nH]2)C1` [Example 45, (R)-(3-Aminopyrrolidin-1-yl)(5,7-dichloro-1H-indol-2-yl)methanone], the concentration for half-maximal inhibition (IC50) was 10 to 100 µM.
With `C[C@@H]1CNC[C@@H]1NC(=O)c1cc2cc(Cl)c(F)c(F)c2[nH]1` [Example 20, 5-Chloro-6,7-difluoro-N-((3R,4R)-4-methylpyrrolidin-3-yl)-1H-indole-2-carboxamide], the IC50 is at most 1 µM.
As for `N[C@H]1CCN(C(=O)c2cc3cc(Cl)c(F)c(F)c3[nH]2)C1` [Example 27, (S)-(3-Aminopyrrolidin-1-yl)(5-chloro-6,7-difluoro-1H-indol-2-yl)methanone], the half-maximal inhibitory concentration (IC50) was at most 1 µM.
The same measure for `C[C@@H]1CNC[C@H]1NC(=O)c1cc2cc(Cl)c(F)c(F)c2[nH]1` [Example 13, 5-Chloro-6,7-difluoro-N-((3S,4R)-4-methylpyrrolidin-3-yl)-1H-indole-2-carboxamide]: 1 to 10 µM; for `CO[C@H]1CNC[C@@H]1NC(=O)c1cc2cc(Cl)c(F)c(F)c2[nH]1` [Example 33, 5-Chloro-6,7-difluoro-N-((3S,4S)-4-methoxypyrrolidin-3-yl)-1H-indole-2-carboxamide]: 10 to 100 µM; for `N[C@@H]1CCN(C(=O)c2cc3cc(Cl)cc(F)c3[nH]2)C1` [Example 2, (R)-(3-Aminopyrrolidin-1-yl)(5-chloro-7-fluoro-1H-indol-2-yl)methanone]: at most 1 µM.
Then `C[C@@H](CN)NC(=O)c1cc2cc(Cl)c(F)c(F)c2[nH]1` [Example 9, (S)-N-(1-Aminopropan-2-yl)-5-chloro-6,7-difluoro-1H-indole-2-carboxamide], with at most 1 µM; and `N[C@H]1CN(C(=O)c2cc3cc(Cl)c(F)c(F)c3[nH]2)C[C@@H]1O` [Example 22, ((3S,4S)-3-Amino-4-hydroxypyrrolidin-1-yl)(5-chloro-6,7-difluoro-1H-indol-2-yl)methanone], with at most 1 µM.
Then `N[C@H]1CN(C(=O)c2cc3cc(Cl)c(F)c(F)c3[nH]2)C[C@H]1O` [Example 32, ((3S,4R)-3-Amino-4-hydroxypyrrolidin-1-yl)(5-chloro-6,7-difluoro-1H-indol-2-yl)methanone], with 1 to 10 µM; and `O=C(N[C@H]1CCNC1)c1cc2cc(Cl)c(F)c(F)c2[nH]1` [Example 26, (S)-5-Chloro-6,7-difluoro-N-(pyrrolidin-3-yl)-1H-indole-2-carboxamide], with 1 to 10 µM.
Consider `N[C@@H]1CCN(C(=O)c2cc3cc(F)c(F)cc3[nH]2)C1` [Example 50, (R)-(3-Aminopyrrolidin-1-yl)(5,6-difluoro-1H-indol-2-yl)methanone], for which the IC50 was in the range of 10 to 100 µM.
As to `C[C@H]1CNC[C@@H]1NC(=O)c1cc2cc(Cl)c(F)c(F)c2[nH]1` [Example 36, 5-Chloro-6,7-difluoro-N-((3R,4S)-4-methylpyrrolidin-3-yl)-1H-indole-2-carboxamide], the IC50 was in the range of 1 to 10 µM.
With `O=C(N[C@H]1CCCNC1)c1cc2cc(Cl)c(F)c(F)c2[nH]1` [Example 39, (S)-5-Chloro-6,7-difluoro-N-(piperidin-3-yl)-1H-indole-2-carboxamide], the half-maximal inhibitory concentration (IC50) was 10 to 100 µM.
The same measure for `N[C@@H]1CCN(C(=O)c2cc3cc(F)c(Br)c(F)c3[nH]2)C1` [Example 6, (R)-(3-Aminopyrrolidin-1-yl)(6-bromo-5,7-difluoro-1H-indol-2-yl)methanone]: 10 to 100 µM.
Then `O=C(N[C@H]1CNC[C@H]1O)c1cc2cc(Cl)c(F)c(F)c2[nH]1` [Example 17, 5-Chloro-6,7-difluoro-N-((3S,4R)-4-hydroxypyrrolidin-3-yl)-1H-indole-2-carboxamide], with 10 to 100 µM; and `CO[C@H]1CN(C(=O)c2cc3cc(Cl)c(F)c(F)c3[nH]2)C[C@@H]1N` [Example 35, ((3S,4S)-3-Amino-4-methoxypyrrolidin-1-yl)(5-chloro-6,7-difluoro-1H-indol-2-yl)methanone], with over 100 µM.
Then `C[C@H]1NC[C@H]1NC(=O)c1cc2cc(Cl)c(F)c(F)c2[nH]1` [Example 55, 5-chloro-6,7-difluoro-N-((2R,3R)-2-methylazetidin-3-yl)-1H-indole-2-carboxamide], with 1 to 10 µM.
